# In patent publication EP0229718A2, “Labelling blood cells” (AMERSHAM INTERNATIONAL plc, priority 1986, dated 1987):
# How the values were obtained:
# inflammatory disease = experiment: Imaging of inflammatory disease in patients with labelled leucocytes (Example 6); assay type: in vivo
# Experimental: (§1) Hexamethylpropylene-amineoxime (HMPAO) forms a lipid-soluble neutral complex with ^99mTc which is rapidly incorporated into leucocytes in vitro. In six patients with suspected or known inflammatory disease, a "mixed" leucocyte suspension isolated from 85 ml blood anticoagulated with acid-citrate-dextrose was labelled by ^99mTc-HMPAO with a mean efficiency of 47%, of which 78% was taken up by granulocytes. […] Four patients also received ¹¹¹In-labelled "pure" granulocytes.
# (§2) This experiment is described in more detail in The Lancet, October 25 1986, pages 946-949.
# [1] = tested on: "mixed" leucocyte suspension; experiment: In vitro labelling of a mixed leucocyte suspension from patients (Example 6); assay type: cell-based
# Experimental: as §1, §2
compound,measurement,setting,value
C/C(=N\[O-])[C@@H](C)[N-]CC(C)(C)C[N-][C@H](C)/C(C)=N/O.[O]=[99Tc+3] (racemic) [^99mTc-HMPAO],granulocyte recovery in blood,"inflammatory disease; at 30-40 min, mean",32%
same,"image detail compared with ¹¹¹In-labelled ""pure"" granulocytes",inflammatory disease; four patients also received ¹¹¹In-labelled granulocytes,comparable or superior to the ¹¹¹In images
same,detection of inflammatory disease by imaging,"inflammatory disease; six patients, from 30 min (five patients) or 3 h (sixth), remained positive at 20-24 h",All six patients were positive for inflammatory disease
same,retention of label in granulocytes in vitro,[1]; elution compared with other cell types,remained firmly labelled
same,share of the label taken up by granulocytes,[1]; of the cell-bound label,78%
same,mean labelling efficiency,"[1]; six patients, leucocytes from 85 ml blood anticoagulated with acid-citrate-dextrose",47%
